According to patent US10752628B2, “Compounds and methods for treating synovial sarcomas” (THE BROAD INSTITUTE, INC., priority 2015, dated 2020):

Experiments:
Type in all cases: cell-based, human
[1] = system: BAF47 within the BAF complex; assay: anti-Brg immunoprecipitation of BAF complexes followed by anti-BAF47 western blot in Aska cells; conditions: 48 hours at 16 μM, relative to DMSO control
Description: Briefly, naïve, unmodified Aska SS cells were treated for 48 hours at 16 μM concentration of all 5 positive hit compounds (as well as negative compounds for controls). The western blot reflects IPs of BAF complexes highlighting increased incorporation/stability of BAF47 relative to DMSO control. The bar graph highlights levels of BAF47 (measured via western blot quantitative densitometry) over n=3 experiments for each compound, including testing against three other negative compounds.
(§1) All cell types were grown under standard conditions and lysed and homogenized in Buffer A (10 mM Hepes (pH 7.6), 25 mM KCl, 1 mM EDTA, 10% glycerol, 1 mM DTT, and protease inhibitors (complete mini tablets (Roche) supplemented with 1 mM PMSF) on ice. Nuclei were sedimented by centrifugation (1,000×g), resuspended in Buffer C (10 mM Hepes (pH 7.6), 3 mM MgCl2, 100 mM KCl, 0.1 mM EDTA, 10% glycerol, 1 mM DTT, and protease inhibitors), and lysed by the addition of ammonium sulfate to a final concentration of 0.3 M. Soluble nuclear proteins were separated by the insoluble chromatin fraction by ultracentrifugation (100,000×g) and precipitated with […] ammonium sulfate for 20 min on ice. Protein precipitate was isolated by ultracentrifugation (100,000×g), and resuspended in IP buffer (150 mM NaCl, 50 mM Tris-HCl (pH 8.0), 1% NonidetP-40, 0.5% deoxycholate, 1 mM DTT, 1 mM PMSF with protease inhibitors) for immunoprecipitation analyses or HEMG-0 buffer (25 mM HEPES pH 7.9, 0.1 mM EDTA, 12.5 mM MgCl2, 100 mM KCl, freshly supplemented with DTT and PMSF) for glycerol gradient analyses.
(§2) Nuclear extracts were resuspended in IP buffer and precleared for 30 minutes at 4 degrees C. using Protein G/A Sepharose beads (GE Healthcare). The protein concentration was determined using Bradford assay and adjusted to a final volume of 250 μL at a final concentration of 1.5 mg/mL with IP buffer. Each IP was incubated with 2.5 μg of antibody overnight at 4° C. and then for 2 h with 20 μL Protein A/G Sepharose beads. The beads were washed four times at room temperature with 1 mL IP buffer and resuspended in 20 μL 2× gel loading buffer (4×LDS Buffer; Invitrogen)+DTT.

[2] = system: BAF47 within the BAF complex; assay: BAF155 immunoprecipitation and western blot for BAF47 in Aska cells; conditions: for BAF47 stabilization within the BAF complex (BAF155 immunoprecipitation): Aska cells, twenty-four hours, single 30 micromolar dose
Description: These include resynthesized positive hits for Compounds 5-6.
FIG. 8 comprises a series of images and graph illustrating the activity of Compound 5 in Yamato cells. Briefly, Yamato cells were treated with 30 μM compound for 24 hours over n=5 replicates. The graph depicts levels of BAF47 in DMSO treated vs Compound 5-treated cells.
as §1, §2

[3] = system: BAF47; assay: Time and dose study of Compound 11 on BAF47 stability in Aska cells; conditions: 0-30 micromolar, 24, 48 and 72 hours
Description: FIG. 9 comprises a set of bar graphs illustrating the effects of Compound 11 (illustrated), the lead compound lacking the hydroxyl group, as a function of time and dose in Aska cells.
Compound 11 was added at doses from 0-30 micromolar, and the results monitored at 24, 48, and 72 hours after treatment.

[4] = system: Aska synovial sarcoma cells; assay: Synovial sarcoma cell viability by CellTiter Glo luminescence
Description: FIGS. 15A-15C comprise a set of graphs illustrating the finding that compounds of the invention reduce synovial sarcoma cell viability as measured by CellTiter Glog luminescence.
The effect of compounds of the invention on synovial sarcoma cell viability was assessed as measured by CellTiter Glo® luminescence (FIGS. 15A-15B). Briefly, cells were plated under standard conditions and allowed to grow to 75% confluence prior to treatment with compounds. CellTiterGlo reagent was used to measure cell viability.

Structure (SMILES) | BAF47 stabilization (anti-Brg IP, anti-BAF47 western blot) [1] | BAF47 stabilization within the BAF complex (BAF155 immunoprecipitation) [2] | BAF47 stability as a function of time and dose [3] | BAF47 stabilization (western blot image, FIG. 8 lower panel) ([2]; Aska-SS cells upon treatment with Compound 5) | Cell viability (CellTiter Glo luminescence) [4]
C[C@@H]1CCCCO[C@@H](CN(C)Cc2ccc(C(=O)Nc3ccccc3N)cc2)[C@H]2C[C@@H](CO)N(C2)C(=O)c2cc(N(C)C)ccc2O1 [Compound 8, N-(2-aminophenyl)-4-(((((13S,15R,5R,11R)-35-(dimethylamino)-15-(hydroxymethyl)-5-methyl-2-oxo-4,10-dioxa-1(1,3)-pyrrolidina-3(1,2)-benzenacycloundecaphane-11-yl)methyl)(methyl)amino)methyl)benzamide] | stabilized BAF47 |  |  |  | 
C[C@@H]1CN([C@H](C)CO)C(=O)c2cc(NC(=O)NC3CCCCC3)ccc2O[C@@H]1CN(C)S(=O)(=O)c1cccs1 [Compound 3, N-(((2S,3R)-8-(3-cyclohexylureido)-5-((R)-1-hydroxypropan-2-yl)-3-methyl-6-oxo-3,4,5,6-tetrahydro-2H-benzo[b][1,5]oxazocin-2-yl)methyl)-N-methylthiophene-2-sulfonamide] | stabilized BAF47 |  |  |  | 
C[C@@H]1CN([C@H](C)CO)C(=O)c2cccc(NC(=O)c3ccc(-c4nccs4)cc3)c2O[C@@H]1CN(C)Cc1ccc(C(=O)Nc2ccccc2N)cc1 [Compound 1, N-(2-aminophenyl)-4-(((((2S,3R)-5-((R)-1-hydroxypropan-2-yl)-3-methyl-6-oxo-10-(4-(thiazol-2-yl)benzamido)-3,4,5,6-tetrahydro-2H-benzo[b][1,5]oxazocin-2-yl)methyl)(methyl)amino)methyl)benzamide] | stabilized BAF47 |  |  |  | 
COc1ccc2c3c([nH]c2c1)CN(Cc1ccccc1F)CC31CCN(C(=O)C2CCC2)CC1 [Compound 11, cyclobutyl(2′-(2-fluorobenzyl)-7′-methoxy-1′,2′,3′,9′-tetrahydrospiro[piperidine-4,4′-pyrido[3,4-b]indol]-1-yl)methanone] |  | stabilized BAF47 within the BAF complex | increases BAF47 stability in dose-dependent manner |  | 
COc1ccc2c3c([nH]c2c1)[C@@H](CO)N(Cc1ccccc1F)CC31CCN(C(=O)C2CCC2)CC1 [Compound 5, (S)-cyclobutyl(2′-(2-fluorobenzyl)-1′-(hydroxymethyl)-7′-methoxy-1′,2′,3′,9′-tetrahydrospiro[piperidine-4,4′-pyrido[3,4-b]indol]-1-yl)methanone] | stabilized BAF47 | stabilized BAF47 within the BAF complex |  | stabilization of BAF47 | resulted in cell toxicity
